Experimental data from PubChem BioAssay (NCI).
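Briefly, cells in 96-well plates were exposed to five compound concentrations for 48 h, and endpoints were estimated by linear interpolation. GI50 is the concentration that inhibits growth by half. TGI is the concentration that stops growth completely.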

Assays:
Experiment in all cases: NCI-60 cell line screen, 48 h
[1] = test system: 786-0 renal
[2] = test system: A549 NSCLC
[3] = test system: ACHN renal
[4] = test system: BT-549 breast
[5] = test system: CAKI-1 renal
[6] = test system: CCRF-CEM leukemia
[7] = test system: COLO 205 colon
[8] = test system: DU-145 prostate
[9] = test system: EKVX NSCLC
[10] = test system: HCT-116 colon
[11] = test system: HCT-15 colon
[12] = test system: HOP-62 NSCLC
[13] = test system: HOP-92 NSCLC
[14] = test system: HS 578T breast
[15] = test system: HT29 colon
[16] = test system: IGROV1 ovarian
[17] = test system: K-562 leukemia
[18] = test system: LOX IMVI melanoma
[19] = test system: M14 melanoma
[20] = test system: MALME-3M melanoma
[21] = test system: MCF7 breast
[22] = test system: MDA-MB-231 breast
[23] = test system: MDA-MB-435
[24] = test system: MOLT-4 leukemia
[25] = test system: NCI-H226 lung
[26] = test system: NCI-H23 lung
[27] = test system: NCI-H460 lung
[28] = test system: NCI-H522 lung
[29] = test system: NCI/ADR-RES ovarian
[30] = test system: OVCAR-3 ovarian
[31] = test system: OVCAR-4 ovarian
[32] = test system: OVCAR-5 ovarian
[33] = test system: OVCAR-8 ovarian
[34] = test system: PC-3 prostate
[35] = test system: RPMI-8226 leukemia
[36] = test system: SF-268 CNS
[37] = test system: SF-295 CNS
[38] = test system: SF-539 CNS
[39] = test system: SK-MEL-2 melanoma
[40] = test system: SK-MEL-28 melanoma
[41] = test system: SK-MEL-5 melanoma
[42] = test system: SK-OV-3 ovarian
[43] = test system: SN12C renal
[44] = test system: SNB-19 CNS
[45] = test system: SNB-75 CNS
[46] = test system: SR leukemia
[47] = test system: SW-620 colon
[48] = test system: T-47D breast
[49] = test system: TK-10 renal
[50] = test system: U251 CNS
[51] = test system: UACC-257 melanoma
[52] = test system: UACC-62 melanoma
[53] = test system: UO-31 renal
[54] = test system: A498 renal
[55] = test system: HCC-2998 colon
[56] = test system: HL-60(TB) leukemia
[57] = test system: KM12 colon

CSC(SC)(C(=O)O)c1cc(-c2c(Cl)cccc2Cl)no1
TGI [1]: > 100 µM | TGI [2]: > 100 µM | TGI [3]: > 100 µM | TGI [4]: > 100 µM | TGI [5]: > 100 µM | TGI [6]: > 100 µM | TGI [7]: > 100 µM | TGI [8]: > 100 µM | TGI [9]: > 100 µM | TGI [10]: > 100 µM | TGI [11]: 41.9 µM | TGI [12]: > 100 µM | TGI [13]: > 100 µM | TGI [14]: > 100 µM | TGI [15]: > 100 µM | TGI [16]: > 100 µM | TGI [17]: > 100 µM | TGI [18]: > 100 µM | TGI [19]: > 100 µM | TGI [20]: > 100 µM | TGI [21]: > 100 µM | TGI [22]: > 100 µM | TGI [23]: > 100 µM | TGI [24]: > 100 µM | TGI [25]: > 100 µM | TGI [26]: 79 µM | TGI [27]: > 100 µM | TGI [28]: 80.3 µM | TGI [29]: > 100 µM | TGI [30]: > 100 µM | TGI [31]: > 100 µM | TGI [32]: > 100 µM | TGI [33]: > 100 µM | TGI [34]: > 100 µM | TGI [35]: 50.4 µM | TGI [36]: > 100 µM | TGI [37]: > 100 µM | TGI [38]: > 100 µM | TGI [39]: > 100 µM | TGI [40]: > 100 µM | TGI [41]: 85.8 µM | TGI [42]: > 100 µM | TGI [43]: > 100 µM | TGI [44]: > 100 µM | TGI [45]: > 100 µM | TGI [46]: > 100 µM | TGI [47]: > 100 µM | TGI [48]: > 100 µM | TGI [49]: > 100 µM | TGI [50]: > 100 µM | TGI [51]: > 100 µM | TGI [52]: > 100 µM | TGI [53]: 92.2 µM

Cc1cc(Cl)ccc1OCC(=O)Nc1nc2c(Cl)cccc2s1
GI50 [1]: 26.4 µM | TGI [1]: > 100 µM | GI50 [54]: > 100 µM | TGI [54]: > 100 µM | GI50 [2]: 16.7 µM | TGI [2]: 42 µM | GI50 [3]: 43.3 µM | TGI [3]: > 100 µM | GI50 [4]: > 100 µM | TGI [4]: > 100 µM | GI50 [5]: > 100 µM | TGI [5]: > 100 µM | GI50 [6]: 6.94 µM | TGI [6]: 35.7 µM | GI50 [7]: > 100 µM | TGI [7]: > 100 µM | GI50 [8]: 26.4 µM | TGI [8]: > 100 µM | GI50 [9]: > 100 µM | TGI [9]: > 100 µM | GI50 [55]: > 100 µM | TGI [55]: > 100 µM | GI50 [11]: 6.49 µM | TGI [11]: > 100 µM | GI50 [56]: 5.63 µM | TGI [56]: > 100 µM | GI50 [12]: 19.6 µM | TGI [12]: 55.1 µM | GI50 [13]: 21 µM | TGI [13]: 97.5 µM | GI50 [14]: > 100 µM | TGI [14]: > 100 µM | GI50 [15]: > 100 µM | TGI [15]: > 100 µM | GI50 [16]: > 100 µM | TGI [16]: > 100 µM | GI50 [17]: 7.25 µM | TGI [17]: > 100 µM | GI50 [57]: 43.5 µM | TGI [57]: > 100 µM | GI50 [18]: 9.82 µM | TGI [18]: 45.6 µM | GI50 [19]: > 100 µM | TGI [19]: > 100 µM | GI50 [20]: > 100 µM | TGI [20]: > 100 µM | GI50 [21]: 11.2 µM | TGI [21]: 24 µM | GI50 [22]: 16.2 µM | TGI [22]: 91.9 µM | GI50 [23]: > 100 µM | TGI [23]: > 100 µM | GI50 [24]: 6.94 µM | TGI [24]: 60.3 µM | GI50 [25]: 53.3 µM | TGI [25]: > 100 µM | GI50 [26]: 73 µM | TGI [26]: > 100 µM | TGI [27]: > 100 µM | GI50 [28]: 46.9 µM | TGI [28]: > 100 µM | GI50 [29]: 23.8 µM | TGI [29]: > 100 µM | GI50 [30]: 28.1 µM | TGI [30]: 93.8 µM | GI50 [31]: 46.7 µM | TGI [31]: > 100 µM | GI50 [32]: 50.4 µM | TGI [32]: > 100 µM | GI50 [33]: 15.9 µM | TGI [33]: 29.4 µM | GI50 [34]: 8.89 µM | TGI [34]: > 100 µM | GI50 [35]: 18.7 µM | TGI [35]: > 100 µM | GI50 [36]: 28.8 µM | TGI [36]: > 100 µM | GI50 [37]: 20.8 µM | TGI [37]: > 100 µM | GI50 [38]: 17.4 µM | TGI [38]: > 100 µM | GI50 [39]: > 100 µM | TGI [39]: > 100 µM | GI50 [40]: > 100 µM | TGI [40]: > 100 µM | GI50 [41]: > 100 µM | TGI [41]: > 100 µM | GI50 [42]: 96.2 µM | TGI [42]: > 100 µM | GI50 [43]: 39.2 µM | TGI [43]: > 100 µM | GI50 [44]: 31.2 µM | TGI [44]: 72 µM | GI50 [45]: 23.7 µM | TGI [45]: > 100 µM | GI50 [47]: > 100 µM | TGI [47]: > 100 µM | GI50 [48]: > 100 µM | TGI [48]: > 100 µM | GI50 [49]: 61.3 µM | TGI [49]: > 100 µM | GI50 [50]: 8.32 µM | TGI [50]: 25.2 µM | GI50 [51]: > 100 µM | TGI [51]: > 100 µM | GI50 [52]: 7.41 µM | TGI [52]: > 100 µM | GI50 [53]: > 100 µM | TGI [53]: > 100 µM
